Assay results reported in ChEMBL document CHEMBL1201862, “PubChem BioAssay data set” (2004).
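96-well plates; 48 h exposure; 5 concentrations. Endpoints by linear interpolation between flanking doses. Not reached: highest tested concentration assigned. At the GI50, growth is halved.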 Activity calls are given as the source filed them. Cut-off read from the data, not from the text of the source: active = GI50 up to about 1.1 µM and inactive = higher.

Tests used:
Test in all cases: NCI anticancer screen, dose series, 48 h
UACC-257 = tested on: UACC-257
PC-3 = tested on: PC-3
BT-549 = tested on: BT-549
M14 = tested on: M14
CCRF-CEM = tested on: CCRF-CEM
HOP-92 = tested on: HOP-92
MDA-MB-231 = tested on: MDA-MB-231
MDA-N = tested on: MDA-N
SF-295 = tested on: SF-295
T47D = tested on: T47D
SK-OV-3 = tested on: SK-OV-3
NCI-H522 = tested on: NCI-H522
SNB-19 = tested on: SNB-19
HOP-62 = tested on: HOP-62
SR = tested on: SR
SF-268 = tested on: SF-268
OVCAR-5 = tested on: OVCAR-5
HCT-116 = tested on: HCT-116
RXF 393 = tested on: RXF 393
SF-539 = tested on: SF-539

SMILES | GI50 (UACC-257) | GI50 (PC-3) | GI50 (BT-549) | GI50 (M14) | GI50 (CCRF-CEM) | GI50 (HOP-92) | GI50 (MDA-MB-231) | GI50 (MDA-N) | GI50 (SF-295) | GI50 (T47D) | GI50 (SK-OV-3) | GI50 (NCI-H522) | GI50 (SNB-19) | GI50 (HOP-62) | GI50 (SR) | GI50 (SF-268) | GI50 (OVCAR-5) | GI50 (HCT-116) | GI50 (RXF 393) | GI50 (SF-539)
OC(Cc1cccnc1)(c1ccccc1)c1ccccc1 | 41.3 µM (inactive) | > 100 µM (inactive) | 73.6 µM (inactive) | 68.1 µM (inactive) | > 100 µM (inactive) | > 100 µM (inactive) | > 100 µM (inactive) | 47.2 µM (inactive) | 53.8 µM (inactive) | 59 µM (inactive) | > 100 µM (inactive) | 47 µM (inactive) | > 100 µM (inactive) | > 100 µM (inactive) | 58.7 µM (inactive) | > 100 µM (inactive) | > 100 µM (inactive) | > 100 µM (inactive) | > 100 µM (inactive) | –
O=C(Nc1ccc([N+](=O)[O-])cc1)Nn1cnnc1 | 94 µM (inactive) | 42.1 µM (inactive) | 20.8 µM (inactive) | > 100 µM (inactive) | > 100 µM (inactive) | > 100 µM (inactive) | > 10 µM (inactive) | 34 µM (inactive) | 29 µM (inactive) | 24 µM (inactive) | > 100 µM (inactive) | 49.8 µM (inactive) | 57 µM (inactive) | 66.2 µM (inactive) | 31.6 µM (inactive) | 42 µM (inactive) | > 100 µM (inactive) | 74.5 µM (inactive) | – | 25.7 µM (inactive)
CC(=O)C(=[N+]=[N-])C(=O)N1CCOC1=O | > 10 µM (inactive) | > 10 µM (inactive) | > 10 µM (inactive) | > 10 µM (inactive) | > 10 µM (inactive) | – | > 10 µM (inactive) | > 10 µM (inactive) | > 10 µM (inactive) | > 10 µM (inactive) | > 10 µM (inactive) | – | > 10 µM (inactive) | > 10 µM (inactive) | > 10 µM (inactive) | > 10 µM (inactive) | > 10 µM (inactive) | > 10 µM (inactive) | > 10 µM (inactive) | > 10 µM (inactive)
O=C1Nc2ccccc2/C1=N/N=c1\cccc[nH]1 | 41.8 µM (inactive) | 52.8 µM (inactive) | 43.6 µM (inactive) | > 100 µM (inactive) | 18.8 µM (inactive) | – | 12.6 µM (inactive) | > 100 µM (inactive) | 51.9 µM (inactive) | 38.5 µM (inactive) | 18.6 µM (inactive) | 17.1 µM (inactive) | 30.7 µM (inactive) | 34.1 µM (inactive) | 14.3 µM (inactive) | 35.4 µM (inactive) | 51.5 µM (inactive) | 11.6 µM (inactive) | 97.3 µM (inactive) | –
O=C1CSC(c2cccc([N+](=O)[O-])c2)N1c1ccc(-n2c(-c3ccccc3)nc3ccccc3c2=O)cc1 (stereo not given) | > 100 µM (inactive) | > 100 µM (inactive) | 28.2 µM (inactive) | > 100 µM (inactive) | > 100 µM (inactive) | 94.8 µM (inactive) | > 100 µM (inactive) | > 100 µM (inactive) | > 100 µM (inactive) | 6.68 µM (inactive) | 26.2 µM (inactive) | > 100 µM (inactive) | > 100 µM (inactive) | > 100 µM (inactive) | 84.3 µM (inactive) | 99.3 µM (inactive) | > 100 µM (inactive) | > 100 µM (inactive) | – | > 100 µM (inactive)
CCCCn1c(C)c2c(c1C)C(=O)N(CCN1CCN(c3ccccc3Cl)CC1)C2=O | 28.6 µM (inactive) | 28.4 µM (inactive) | 17.3 µM (inactive) | 21.9 µM (inactive) | 29.3 µM (inactive) | 25.4 µM (inactive) | 51.2 µM (inactive) | 34.6 µM (inactive) | 23.1 µM (inactive) | 22.5 µM (inactive) | 21.6 µM (inactive) | 25.5 µM (inactive) | 92.3 µM (inactive) | 29 µM (inactive) | 26.4 µM (inactive) | 17.6 µM (inactive) | 61.8 µM (inactive) | 18.6 µM (inactive) | – | 17.9 µM (inactive)
CC(=O)n1nc(-c2ccccc2)n(/N=C/c2ccc([N+](=O)[O-])cc2)c1=O | > 100 µM (inactive) | > 100 µM (inactive) | > 100 µM (inactive) | > 100 µM (inactive) | > 100 µM (inactive) | 59.3 µM (inactive) | 35 µM (inactive) | > 100 µM (inactive) | > 100 µM (inactive) | > 100 µM (inactive) | 52.8 µM (inactive) | 51.3 µM (inactive) | > 100 µM (inactive) | – | > 100 µM (inactive) | 43.5 µM (inactive) | > 100 µM (inactive) | > 100 µM (inactive) | 65.9 µM (inactive) | > 100 µM (inactive)
CC(=O)Nc1ncc2c(n1)-c1ccccc1OC2c1ccccc1 (stereo not given) | > 100 µM (inactive) | > 100 µM (inactive) | 27.7 µM (inactive) | > 100 µM (inactive) | > 100 µM (inactive) | 14.8 µM (inactive) | 21.7 µM (inactive) | > 100 µM (inactive) | 32.2 µM (inactive) | 24.7 µM (inactive) | 42.8 µM (inactive) | 37.7 µM (inactive) | 20.8 µM (inactive) | – | > 100 µM (inactive) | 15.4 µM (inactive) | > 100 µM (inactive) | 80.9 µM (inactive) | 17.1 µM (inactive) | 13.2 µM (inactive)
COC(=O)C(O)P(=O)(OC)OC (stereo not given) | > 100 µM (inactive) | > 100 µM (inactive) | > 100 µM (inactive) | > 100 µM (inactive) | – | > 100 µM (inactive) | > 100 µM (inactive) | > 100 µM (inactive) | > 100 µM (inactive) | > 100 µM (inactive) | > 100 µM (inactive) | > 100 µM (inactive) | > 100 µM (inactive) | > 100 µM (inactive) | > 100 µM (inactive) | > 100 µM (inactive) | > 100 µM (inactive) | > 100 µM (inactive) | > 100 µM (inactive) | –
CCN(CC)CCCC(C)Nc1ccnc(/C=C/c2ccc(Cl)cc2)c1 (stereo not given) | 2.02 µM (inactive) | 1.56 µM (inactive) | 2.19 µM (inactive) | 1.11 µM (active) | 1.2 µM (inactive) | 1.26 µM (inactive) | 0.497 µM (active) | 1.83 µM (inactive) | 3.02 µM (inactive) | 1.93 µM (inactive) | 3.61 µM (inactive) | 1.63 µM (inactive) | 3.4 µM (inactive) | 1.84 µM (inactive) | 2.3 µM (inactive) | 3.06 µM (inactive) | 2.61 µM (inactive) | 1.72 µM (inactive) | – | 1.67 µM (inactive)
O=CNc1ccc(S(=O)(=O)c2ccc(NC=O)cc2)cc1 | > 100 µM (inactive) | > 100 µM (inactive) | > 100 µM (inactive) | > 100 µM (inactive) | > 100 µM (inactive) | > 100 µM (inactive) | > 100 µM (inactive) | > 100 µM (inactive) | > 100 µM (inactive) | > 100 µM (inactive) | > 100 µM (inactive) | > 100 µM (inactive) | > 100 µM (inactive) | > 100 µM (inactive) | > 100 µM (inactive) | > 100 µM (inactive) | > 100 µM (inactive) | > 100 µM (inactive) | – | > 100 µM (inactive)
CCCCCCCCCCCCCCCCOCC(Cl)COP(=O)(O)OP(=O)(O)OCC1OC(n2cc(C)c(=O)[nH]c2=O)CC1O (stereo not given) | > 100 µM (inactive) | 25.1 µM (inactive) | > 100 µM (inactive) | > 100 µM (inactive) | > 100 µM (inactive) | 29.5 µM (inactive) | 49 µM (inactive) | 52.8 µM (inactive) | 57 µM (inactive) | 97.3 µM (inactive) | > 100 µM (inactive) | > 100 µM (inactive) | > 100 µM (inactive) | > 100 µM (inactive) | – | 69.2 µM (inactive) | 95.1 µM (inactive) | > 100 µM (inactive) | > 100 µM (inactive) | 72.9 µM (inactive)
O=c1c(C(c2ccc(C(c3c(O)oc4cc(O)ccc4c3=O)c3c(O)oc4cc(O)ccc4c3=O)cc2)c2c(O)oc3cc(O)ccc3c2=O)c(O)oc2cc(O)ccc12 | > 100 µM (inactive) | > 100 µM (inactive) | > 100 µM (inactive) | > 100 µM (inactive) | 53.2 µM (inactive) | > 100 µM (inactive) | > 100 µM (inactive) | > 100 µM (inactive) | > 100 µM (inactive) | > 100 µM (inactive) | > 100 µM (inactive) | – | – | > 100 µM (inactive) | > 100 µM (inactive) | > 100 µM (inactive) | > 100 µM (inactive) | > 100 µM (inactive) | > 100 µM (inactive) | > 100 µM (inactive)
C=CCOc1cccc(C2(O)c3ccccc3C3=NCCCN32)c1 (stereo not given) | 16 µM (inactive) | 10.3 µM (inactive) | > 100 µM (inactive) | 12.4 µM (inactive) | 15.4 µM (inactive) | 21.8 µM (inactive) | 57 µM (inactive) | 17.1 µM (inactive) | – | 17.4 µM (inactive) | 37.7 µM (inactive) | 19.5 µM (inactive) | 2.45 µM (inactive) | 6.84 µM (inactive) | 8.81 µM (inactive) | 54.7 µM (inactive) | 29.7 µM (inactive) | 10.9 µM (inactive) | – | 15.8 µM (inactive)
CC(C)=CCC[C@@H](C)C1=CC(=O)C(C)=C(O)C1=O [ISOPEREZONE] | 10.9 µM (inactive) | 5.01 µM (inactive) | 5.78 µM (inactive) | 5.25 µM (inactive) | 1.19 µM (inactive) | 2.5 µM (inactive) | 6.38 µM (inactive) | 4.81 µM (inactive) | 14.1 µM (inactive) | 2.13 µM (inactive) | 17.9 µM (inactive) | 1.36 µM (inactive) | 15.9 µM (inactive) | 12.9 µM (inactive) | 2.39 µM (inactive) | 10.4 µM (inactive) | 14.4 µM (inactive) | 4.08 µM (inactive) | 2.67 µM (inactive) | –
